Residue numbers refer to the chain shown, from its start. Where two headings read alike, the source gives them in different places.
What was measured:
AKR1C1 = target: T1, AKR1C1 (Homo sapiens, UniProt Q04828); assay: Enzyme activity (NADPH) assay with s-tetralol, recombinant GST-AKR1C1; type: biochemical; set-up: made in house; host or cells: Escherichia coli JM109; conditions: for enzyme activity: CON 192.295568; for inhibition at 2 µM: read-out: % inhibition;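 as to all read-outs here: GST-fused AKR1C1 expressed in E. coli and purified by glutathione affinity, control wells received DMSO instead of compound, duplicate samples from a single experiment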
T1 sequence (Q04828 1-323): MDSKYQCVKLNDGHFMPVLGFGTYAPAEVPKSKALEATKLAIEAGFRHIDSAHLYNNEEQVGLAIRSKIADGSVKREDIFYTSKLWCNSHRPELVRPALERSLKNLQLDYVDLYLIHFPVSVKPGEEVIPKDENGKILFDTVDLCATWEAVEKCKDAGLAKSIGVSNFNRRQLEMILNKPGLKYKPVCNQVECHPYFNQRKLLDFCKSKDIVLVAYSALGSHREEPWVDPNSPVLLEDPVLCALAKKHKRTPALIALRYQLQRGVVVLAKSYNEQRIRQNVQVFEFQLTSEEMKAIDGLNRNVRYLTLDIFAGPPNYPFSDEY
Method: GST-tagged recombinant AKR1C isoforms expressed JM109 was grown in Luria-Bertani broth (100 μg⋅ml-1 ampicillin, pH = 7.0) at 37°C with orbital shaking at 220 rpm. When cells achieved an OD600 nm between 0.4 and 0.6, 0.3 mM final concentration of isopropyl β-D-1-thiogalactopyranoside (IPTG) was added to the cultures and incubated for an additional 12 h at 25°C. Cells were harvested by centrifugation at 8000 g for 10 min, and the cell pellets were stored at -80°C for storage. The pellets were resuspended in 1 × PBS, pH = 7.4 and lysed by ultrasonication at ice-cold temperature using an UH-03 union instrument. The purification of glutathione-S-transferase (GST)-fusion AKR1C1, AKR1C2, and AKR1C3 were then carried out using ÄKTA systems from GE Healthcare as described in Handbook. The recombinant proteins were eluted in 50 mM Tris–HCl (pH = 8.0) with 20 mM reduced glutathione, fresh preparedly. Protein concentrations were determined using the Bradford protein assay kit. All proteins were aliquoted and stored at -80°C containing 20% glycerol.
(§1) To screen for the indicated inhibitor, the assay mixture was added with additional DMSO or 2 μM compounds. […] The inhibition patterns were determined by fitting initial velocity and inhibitor concentration into inhibition models using Graphpad Prism 6.0. All inhibition data were obtained from single experiments, with samples conducted in duplicate.
Firstly, we overexpressed recombinant human AKR1C in E. coli in the form of a GST-fusion protein, and then purified it by affinity chromatography on glutathione-Sepharose.
To screen for the inhibitors of AKR1C1, we developed a readily accessible indirect NADPH generating-based assay that can be used for high-throughput inhibitors screening. […] Wells were included containing enzyme and no inhibitor or 2 μM inhibitor.

recombinant AKR1C2 = target: T2, recombinant AKR1C2 (Homo sapiens, UniProt P52895); assay: Enzyme activity (NADPH) assay with s-tetralol, recombinant GST-AKR1C2; type: biochemical; conditions: GST-AKR1C2; S-tetralol/NADP+
T2 construct: made in house; host or cells: Escherichia coli JM109
T2 sequence (P52895 1-323): T1 sequence (Q04828 1-323) with T38V, R47H, L54V, C87S, V151M, R170H, Q172L
Method: (§2) Protein concentrations were determined using the Bradford protein assay kit.
as §1
(§3) Each experiment was repeated three times and the differences among means were significant determined by Student t-text (^∗p < 0.05; ^∗∗p < 0.01; ^∗∗∗p < 0.001).

recombinant AKR1C3 = target: T3, recombinant AKR1C3 (Homo sapiens, UniProt P42330); conditions: GST-AKR1C3; S-tetralol/NADP+
T3 sequence (P42330 1-323): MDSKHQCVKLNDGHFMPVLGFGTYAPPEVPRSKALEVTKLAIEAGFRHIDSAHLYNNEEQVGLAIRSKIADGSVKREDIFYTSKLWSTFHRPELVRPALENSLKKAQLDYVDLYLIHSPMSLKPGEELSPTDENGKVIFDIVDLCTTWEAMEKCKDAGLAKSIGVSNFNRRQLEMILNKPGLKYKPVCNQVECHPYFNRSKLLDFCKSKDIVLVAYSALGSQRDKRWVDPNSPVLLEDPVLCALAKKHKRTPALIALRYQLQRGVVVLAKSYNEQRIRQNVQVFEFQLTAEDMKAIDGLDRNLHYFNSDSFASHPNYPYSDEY
Method: as §2, §1, §3

[1] = 2 μM compound, Supplementary Table 1
[2] = 2 μM compound, Supplementary Table 1, CON 0.0122
[3] = 2 μM compound, Supplementary Table 1, CON = 1
[4] = 2 μM compound, Supplementary Table 1, CON = 1, read-out: ratio (activity relative to CON)

Molecule	% inhibition (AKR1C1; [1]) [%]	slope (AKR1C1; [2])	enzyme activity (AKR1C1; [1]) [nmol/min/mg]	ratio (activity relative to CON) (AKR1C1; [3])	remaining activity at 2 µM (AKR1C1; [4]) [%]	inhibition at 2 µM (AKR1C1; [1]) [%]	other results
COc1cc(C(=O)OCCCCN=C(N)N)cc(OC)c1O.Cl [Leonurine hydrochloride]	40.77	0.007226	113.8912	0.5923	–	–	–
O=c1c2cc(O)c(O)cc2oc2cc(O)c([C@@H]3O[C@H](CO)[C@@H](O)[C@H](O)[C@H]3O)c(O)c12 [Mangiferin]	–	0.009429	148.6125	–	77.3	22.7	–
COc1ccc(-c2cc(=O)c3c(OC)c(OC)c(OC)c(OC)c3o2)cc1OC [Nobiletin]	–	0.0127	200.1315	–	104	-4.07	–
CC1(C)O[C@H]1COc1c2ccoc2cc2oc(=O)ccc12 [Oxypeucedanin]	–	0.0122	192.3856	–	100	-0.05	–
C[C@H]1CC[C@@H]2N(C1)C[C@H]1[C@@H]3C[C@H]4[C@@H](C[C@H](O)[C@H]5C[C@@H](O)CC[C@@]54C)[C@@H]3CC[C@@H]1[C@]2(C)O [Peimine]	4.66	0.0116	183.3338	0.9534	–	–	–
COc1cc(C(=O)O[C@H]2[C@@H]3C=CO[C@@H](O[C@@H]4O[C@H](CO)[C@@H](O)[C@H](O)[C@H]4O)[C@@H]3[C@@]3(CO)O[C@@H]23)ccc1O [Picroside Ⅱ]	–	0.006957	109.658	–	57	43	–
COc1c2c(cc3oc(CO[C@@H]4O[C@H](CO)[C@@H](O)[C@H](O)[C@H]4O)cc(=O)c13)O[C@H](C(C)(C)O)C2 [Prim-O-glucosylcimifugin]	-1.55	0.0124	195.2678	1.0155	–	–	–
O=c1ccc2cc3ccoc3cc2o1 [Psoralen]	–	0.0116	182.8834	–	95.1	4.89	–
CC(C)=CCc1cc2c(cc1O)oc(=O)c1c3ccc(O)cc3oc21 [Psoralidin]	2.25	0.0119	187.9723	0.9775	–	–	–
C[C@@H]1O[C@@H](Oc2c(-c3ccc(O)c(O)c3)oc3cc(O)cc(O)c3c2=O)[C@H](O)[C@H](O)[C@H]1O [Quercitrin]	–	0.0114	180.0013	–	93.6	6.39	–
O[C@H]1CCCc2ccccc21 [S-tetralol, S-(+)-1,2,3,4-tetrahydro-1-naphthol]	–	–	–	–	–	–	Kcat (AKR1C1; GST-AKR1C1, S-tetralol/NADP+): 0.2065 s⁻¹; Km (AKR1C1; GST-AKR1C1, S-tetralol/NADP+): 23.5 µM; Vmax (AKR1C1; GST-AKR1C1, S-tetralol/NADP+): 203.10 nmol/min/mg; catalytic efficiency (AKR1C1; recombinant AKR1C1): 0.53 min^-1/μM^-1; Kcat (recombinant AKR1C2): 0.0962 s⁻¹; Km (recombinant AKR1C2): 103 µM; Vmax (recombinant AKR1C2): 94.58 nmol/min/mg; Kcat (recombinant AKR1C3): 0.553 s⁻¹; Km (recombinant AKR1C3): 851 µM; Vmax (recombinant AKR1C3): 543.90 nmol/min/mg
C[C@H]1O[C@@H](O[C@H]2CC[C@@]3(C)[C@@H](CC[C@]4(C)[C@@H]3C=C[C@]35OC[C@@]6(CCC(C)(C)C[C@H]63)[C@@H](O)C[C@]54C)[C@]2(C)CO)[C@H](O)[C@@H](O[C@@H]2O[C@H](CO)[C@@H](O)[C@H](O)[C@H]2O)[C@H]1O [Saikosaponin A]	–	0.0115	181.6675	–	94.5	5.53	–
C[C@H]1O[C@@H](O[C@H]2CC[C@@]3(C)[C@@H](CC[C@]4(C)[C@@H]3C=C[C@]35OC[C@@]6(CCC(C)(C)C[C@H]63)[C@H](O)C[C@]54C)[C@]2(C)CO)[C@H](O)[C@@H](O[C@@H]2O[C@H](CO)[C@@H](O)[C@H](O)[C@H]2O)[C@H]1O [Saikosaponin D]	5.41	0.0115	181.8927	0.9459	–	–	–
CC(C)=CC[C@@H](O)C1=CC(=O)c2c(O)ccc(O)c2C1=O [Shikonin]	–	0.0134	210.4443	–	109	-9.44	–
O=C([O-])C(O)Cc1ccc(O)c(O)c1.[Na+] (stereo not drawn) [Sodium Danshensu]	14	0.0105	165.3652	0.86	–	–	–
(+)-Catechin hydrate	-7.87	0.0132	207.427	1.0787	–	–	–
Echinacoside	-7.12	0.0131	205.9859	1.0712	–	–	–
Ginkgolide B	34.68	0.007969	125.6001	0.6532	–	–	–
Ginkgolide C	31.9	0.008309	130.9591	0.681	–	–	–
Hydroxysafflor yellow A	27.82	–	138.7951	0.7218	–	–	slope (AKR1C1): 0.008806
Pseuginsenoside F11	4.75	0.0116	183.1536	0.9525	–	–	–

More lines, main results first:

% inhibition (AKR1C1; [1]) [%]	slope (AKR1C1; [2])	enzyme activity (AKR1C1; [1]) [nmol/min/mg]	ratio (activity relative to CON) (AKR1C1; [3])	remaining activity at 2 µM (AKR1C1; [4]) [%]	inhibition at 2 µM (AKR1C1; [1]) [%]	Molecule	other results
–	0.0133	209.2284	–	109	-8.81	COc1cc2c(c(OC)c1OC)-c1c(cc(OC)c(OC)c1OC)C[C@H](C)[C@H](C)C2 [Schisandrin A]	–
-12.27	0.0137	215.8934	1.1227	–	–	COc1cc2c(c(OC)c1OC)-c1c(cc(OC)c(OC)c1OC)C[C@](C)(O)[C@@H](C)C2 [Schisandrol A]	–
–	0.0137	215.6683	–	112	-12.2	COc1cc2c(c(OC)c1OC)-c1c(cc3c(c1OC)OCO3)C[C@H](C)[C@@](C)(O)C2 [Schisandrol B]	–
-23.91	0.0151	238.2754	1.2391	–	–	COc1cc2c(c(OC)c1OC)-c1c(cc3c(c1OC)OCO3)CC(C)C(C)C2 (stereo not drawn) [Schizandrin B]	–
–	0.0133	209.3185	–	109	-8.85	COc1ccc(-c2cc(=O)c3c(OC)c(OC)c(OC)c(OC)c3o2)cc1 [Tangeretin]	–
–	0.007214	113.7111	–	59.1	40.9	COc1ccc2c(c1)CC=C(CO)c1cc3c(cc1-2)OCO3 [Tenuifolin]	–
–	0.00272	42.8725	–	22.3	77.7	COc1c(O)cc(O)c2c(=O)cc(-c3ccccc3)oc12 [Wogonin]	remaining activity at 2 µM (AKR1C1; 2 μM compound, Figure 1A, read-out: % Enzyme Activity): 22.3%; remaining activity at 2 µM (AKR1C1; 2 μM compound, text on Figure 1A, read-out: inhibitory effect over AKR1C1 enzyme activity (% inhibition)): 22.3%
-8.88	0.0133	209.3635	1.0888	–	–	COc1c(O[C@@H]2O[C@H](C(=O)O)[C@@H](O)[C@H](O)[C@H]2O)cc(O)c2c(=O)cc(-c3ccccc3)oc12 [Wogonoside]	–
31.38	0.008371	131.9499	0.6862	–	–	Salvianolic acid B	–
-8.57	0.0132	208.778	1.0857	–	–	Schisantherin A	–
